# Data from PMC7892475, “C-Terminal Amination of a Cationic Anti-Inflammatory Peptide Improves Bioavailability and Inhibitory Activity Against LPS-Induced Inflammation” (Frontiers in Immunology, 2021).
# “Also recorded” adds a separate entry of the source. Ends that are not written are not given here.
# Legend:
# [1] = Reverse-phase HPLC retention time as measure of peptide hydrophobicity; assay type: physicochemical; conditions: HPLC on reverse-phase matrix, aqueous solution; used by the paper as measure of hydrophobicity
# From the text: The retention time of peptides on a reverse-phase matrix has been reported to be related to peptide hydrophobicity ([34]).
# RAW264.7 cells [2] = assay: CCK-8 cell viability assay; assay type: cell-based, mouse; conditions: RAW264.7 macrophages, CCK-8, 0 to 80 μg/ml, 24 h or 72 h, 37°C
# Experimental: The viability of peptide-treated RAW264.7 cells was determined using a Cell Counting Kit-8 (CCK-8) Assay Kit (Dojindo) ([35]). RAW264.7 cells were plated in 96-well plates at a density of 3×10^4 cells/ml in 100 μl DMEM overnight. The cell culture medium was then supplemented with fresh medium containing candidate peptides in a series of concentrations, and the plates were incubated for another 24 h or 72 h. Each well was incubated with 10 μl CCK-8 solution for 4 h in the dark. Afterwards, the absorbance at 450 nm was measured using a microplate reader. Cell viability was determined by:
# Cell viability (%)=(OD450sample/OD450(control))×100%
# [3] = system: LPS-stimulated RAW264.7 cells; assay: Anti-inflammatory assay in LPS-stimulated RAW264.7 cells (ELISA of cytokines); assay type: cell-based, mouse; conditions: 10 μg/ml peptide 30 min before 100 ng/ml LPS, 12 h, 37°C, ELISA of supernatant
# Experimental: RAW264.7 cells were treated with or without 10 μg/ml peptides for 30 min before the addition of 100 ng/ml LPS (E. coli, O55:B5, Sigma-Aldrich, Germany) and further incubation for 12 h at 37°C After treatment, the concentrations of TNF-α, IL-6, and IL-1β in the cell supernatants were assessed.
# (§1) The levels of tumor necrosis factor (TNF)-α, interleukin (IL)-6, and IL-1β in cell culture supernatants and the levels of TNF-α, IL-6, and IL-1β in the serum of mice were detected using commercial ELISA kits (eBioscience, San Diego, USA) according to the manufacturer’s instructions. The levels of serum alanine amino transferase (ALT) and aspartate amino transferase (AST) were detected using commercial reagent kits (Nanjing Jiancheng Bioengineering Institute, Nanjing, China). The activity of myeloperoxidase (MPO) in the liver of mice was detected using an ELISA kit (Boster, Wuhan, China) according to the manufacturer’s instructions.
# [4] = system: LPS-stimulated RAW264.7 cells; assay: Time of addition experiment (peptide pretreatment, LPS neutralization, post-treatment) in RAW264.7 cells; assay type: cell-based, mouse; conditions: ELISA
# Experimental: To identify the mechanisms underlying the anti-inflammatory effects, three different types of treatments were performed as follow.
# Briefly, 10 μg/ml peptide was added to the cell culture medium and incubated with cells for 1 h at 37°C Afterwards, the RAW 264.7 cells were washed with PBS and cultured with fresh medium containing 100 ng/ml LPS for 12 h at 37°C. After treatment, TNF-α, IL-6, and IL-1β secretion in the cell supernatants was assessed.
# The peptides (10 μg/ml) were incubated with 100 ng/ml LPS directly for 1 h at 37°C. RAW 264.7 cells were stimulated with these mixtures for 12 h at 37°C. Afterwards, the TNF-α, IL-6 and IL-1β levels in the cell supernatants were assessed.
# Briefly, 100 ng/ml LPS was added to the cell culture medium and incubated with cells for 1 h at 37°C. Afterwards, the RAW 264.7 cells were washed with PBS and cultured with fresh medium containing 10 μg/ml peptides for 12 h at 37°C. Afterwards, the TNF-α, IL-6, and IL-1β levels in the cell supernatants were assessed.
# as §1
# [5] = LPS neutralization, chromogenic end-point Tachypleus Amebocyte Lysate (TAL) assay; assay type: binding, E. coli
# Experimental: The neutralization of LPS by the peptides was assessed through a quantitative Chromogenic End-point Tachypleus Amebocyte Lysate (CE TAL) assay using a QCL-1000 kit (XIAMEN BIOENDO TECHNOLOGY CO., China). LPS (E. coli, O111:B4, Sigma-Aldrich, USA) at a final concentration of 1.0 U/ml was incubated with various concentrations of the peptides (0 to 64 μg/ml final concentration) at 37°C for 15 min. Afterwards, the mixtures were incubated with TAL assay reagent at 37°C; for 6 min, and the absorbance was measured at 540 nm.
# RAW264.7 cells [6] = assay: Cellular uptake and localization of FITC-labeled peptides (confocal microscopy, flow cytometry); assay type: cell-based, mouse; conditions: N-terminus FITC-labeled peptide, 10 μg/ml, 24 h, 37°C, confocal microscopy and flow cytometry (average FITC intensity)
# Experimental: RAW264.7 cells were treated with N-terminus FITC-labeled peptides at 10 μg/ml for 24 h at 37°C; in the dark. Then, the RAW264.7 cells were rinsed with PBS three times, fixed with paraformaldehyde and washed with PBS. The cell nuclei were stained with DAPI (diluted 1:500 in PBS) (Sigma, USA) for 5 min, and the cells were washed with PBS. The above cells were spread on a glass slide, fixed and observed with a Leica TCA sp5 confocal microscope (Germany).
# RAW264.7 cells were stained with 10 μg/ml N-terminus FITC-labeled peptides at 37°C in the dark for 24 h. Afterwards, the RAW264.7 cells were harvested and rinsed with PBS five times. The average FITC intensity in the cells was measured via flow cytometry.
# TLR4/MD-2 complex [7] = assay: Surface plasmon resonance binding; conditions: SPR, Biacore X100, PBS with 0.05% Tween 20, 30 μl/min, 1:1 model, 0 to 10 μM
# Experimental: SPR assays were performed using a Biacore X100 instrument (GE Healthcare, Pittsburgh, PA, USA). PBS containing 0.05% Tween 20 was used as the running buffer. The running buffer was continuously passed into the reaction chamber at 30 μl/min. Immobilization of CTP-NH2 on the chip surface was performed according to an amino coupling protocol. […] Running buffer was injected into the empty channel as a reference. To regenerate the chip surface at the end of each experiment, 10 mM Gly-HCl buffer (pH 2.5) was injected. ProteOn manager software (version 2.0) was used to analyze the experimental data. The binding curves were processed for the start injection alignment and baseline. A reference-subtracted sensorgram was then fitted to the curves describing a homogeneous 1:1 model. Data from the protein surfaces were grouped together to fit the association kinetic rate constant (Ka) and the dissociation rate constant (Kd). The equilibrium dissociation constant (KD) for the peptide-TLR4/MD-2 interaction was calculated as follows: […]
# TLR4/MD-2 complex [8] = molecular target: T1, TLR4/MD-2 complex (Mus musculus, UniProt Q9QUK6); assay: SPR
# T1 chain 1: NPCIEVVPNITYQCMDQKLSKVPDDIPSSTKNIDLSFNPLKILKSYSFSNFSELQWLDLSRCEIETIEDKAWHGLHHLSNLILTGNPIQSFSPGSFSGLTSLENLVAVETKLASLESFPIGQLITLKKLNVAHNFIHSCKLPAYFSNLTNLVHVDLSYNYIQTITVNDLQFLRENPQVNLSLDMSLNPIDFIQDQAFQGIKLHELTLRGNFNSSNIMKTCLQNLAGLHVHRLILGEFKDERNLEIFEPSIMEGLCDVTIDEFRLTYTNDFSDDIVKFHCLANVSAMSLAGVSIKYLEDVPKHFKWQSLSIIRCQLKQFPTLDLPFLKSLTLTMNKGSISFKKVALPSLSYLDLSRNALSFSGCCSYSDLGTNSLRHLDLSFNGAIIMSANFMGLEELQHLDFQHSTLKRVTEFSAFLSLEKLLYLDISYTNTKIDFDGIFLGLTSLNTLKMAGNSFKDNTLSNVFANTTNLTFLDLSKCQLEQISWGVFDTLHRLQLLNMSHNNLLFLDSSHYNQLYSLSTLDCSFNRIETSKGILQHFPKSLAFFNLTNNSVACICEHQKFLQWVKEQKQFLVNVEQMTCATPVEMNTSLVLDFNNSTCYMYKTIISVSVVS
# T1 chain 2: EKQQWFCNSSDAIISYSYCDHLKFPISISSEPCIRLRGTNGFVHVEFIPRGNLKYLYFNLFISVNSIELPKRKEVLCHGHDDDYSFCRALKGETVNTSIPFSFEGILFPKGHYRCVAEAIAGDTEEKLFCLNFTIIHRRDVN
Molecule,Retention time [1] [min],cytotoxicity (comparison in words) (RAW264.7 cells [2]),"TNF-α, IL-6 and IL-1β secretion levels [3]","TNF-α and IL-6 level, peptide used to pretreat cells or added after LPS induction ([4]; 10 μg/ml peptide 1 h then wash and 100 ng/ml LPS 12 h, or LPS 1 h, wash, then peptide 12 h)","TNF-α and IL-6 release, peptide incubated with LPS ([4]; 10 μg/ml peptide incubated with 100 ng/ml LPS 1 h at 37°C, mixture on cells 12 h)","50% binding rate value (LPS neutralization) ([5]; LPS 1.0 U/ml with 0 to 64 μg/ml peptide, 37°C 15 min, TAL reagent 6 min, absorbance 540 nm)","LPS neutralization activity ([5]; chromogenic TAL assay, LPS 1.0 U/ml, 0 to 64 μg/ml peptide)",cellular uptake and localization (RAW264.7 cells [6]),Ka (association kinetic rate constant) (TLR4/MD-2 complex [7]) [M⁻¹ s⁻¹],Kd (TLR4/MD-2 complex [8]) [nM]
RWGRFLRKIRRFRRKDVT [CTP],10.94,lower cytotoxicity than the parental peptide (CATH2) but higher cytotoxicity than TP5,enhanced inhibitory activity against LPS-induced inflammation,scarcely reduced the elevation in the pro-inflammatory cytokines TNF-α; also recorded: barely exerted such effects,potent inhibition of pro-inflammatory cytokine release,approximately 45.32 ± 5.19 μg/ml,inhibited activation of LPS in a dose-dependent manner,rarely entered RAW264.7 cells,1.34e+07,–
"RWGRFLRKIRRFRRKDVT-NH2 [CTP-NH2 (CATH2(1-13)-TP5 hybrid peptide, C-terminal amide)]",–,–,–,–,–,–,–,–,–,947
RWGRFLRKIRRFRRKDVT [CTP (CATH2(1-13)-TP5 hybrid peptide)],–,–,–,–,–,–,–,–,–,1400
